These molecules were tested against T1, RANTES/MIP-1α chemokine receptor (CCR1) in THP-1 cell membranes (Homo sapiens, UniProt P32246) (assay: Receptor binding assay: 125I-RANTES or 125I-MIP-1α binding to THP-1 cell membranes). Details: inhibitor concentration required for 50% inhibition of specific binding; 125I-RANTES or 125I-MIP-1α as ligand, THP-1 cell membranes; read-out: IC50.
T1 construct: Membranes were prepared from THP-1 cells (ATCC #TIB202); host or cells: THP-1 cells (membrane preparation)
T1 sequence (P32246 1-355): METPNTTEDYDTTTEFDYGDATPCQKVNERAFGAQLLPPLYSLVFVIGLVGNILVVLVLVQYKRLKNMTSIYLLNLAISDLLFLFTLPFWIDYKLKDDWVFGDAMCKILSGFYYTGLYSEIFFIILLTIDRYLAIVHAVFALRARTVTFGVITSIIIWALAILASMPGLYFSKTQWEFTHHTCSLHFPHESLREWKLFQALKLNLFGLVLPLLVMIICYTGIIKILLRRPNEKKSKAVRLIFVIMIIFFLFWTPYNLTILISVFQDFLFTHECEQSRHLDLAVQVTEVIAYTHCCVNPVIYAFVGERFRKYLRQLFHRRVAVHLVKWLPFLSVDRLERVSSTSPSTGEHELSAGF

| Molecule | IC50 |
| --- | --- |
| COC(=O)c1cc(Cl)ccc1N1CCN(CCC=C2c3cc(C(C)(C)O)ccc3OCc3ncccc32)CC1 [Example 541, 5-Chloro-2-(4-{3-[7-(1-hydroxy-1-methyl-ethyl)-11H-10-oxa-1-aza-dibenzo[a,d]cyclohepten-5-ylidene]-propyl}-piperazin-1-yl)-benzoic acid methyl ester] | < 10 µM |
| 1-[3-(5,11-Dihydro-7-methoxy[1]benzoxepino[2,3-b]pyridin-5-ylidene)propyl]-4-(4-hydroxyphenyl)piperidine [Example 183] | < 1 µM |
| 4-(4-Chlorophenyl)-1-[3-(5,11-dihydro-7-propargyloxy[1]benzoxepino [2,3-b]pyridin-5-ylidene)propyl]piperidin-4-ol [Example 173] | < 1 µM |
| CCN(Cc1ccc(Cl)cc1)CC1CCN(CCC=C2c3cc(C(C)(C)O)ccc3OCc3ncccc32)C1 (stereo in doubt) [Example 526, (R)-2-{5-[3-(3-{[(4-Chloro-benzyl)-ethyl-amino]-methyl}-pyrrolidin-1-yl)-propylidene]5,11-dihydro-10-oxa-1-aza-dibenzo[a,d]cyclohepten-7-yl}-propan-2-ol] | < 1 µM |
| NCc1ccc2c(c1)C(=CCCN1CCC(O)(c3ccc(Cl)cc3)CC1)c1ccccc1CO2 [Example 29, 1-[3-(2-Aminomethyl-6,11-dihydrodibenz[b,e]oxepin-11-ylidene)propyl]-4-(4-chlorophenyl)piperidin-4-ol] | < 1 µM |
| CN(C)C(=O)c1ccc2c(c1)C(=CCCN1CCC(O)(c3ccc(Cl)cc3)CC1)c1ccccc1CO2 [Example 25, 4-(4-Chlorophenyl)-1-[3-(6,11-dihydro-2-dimethylaminocarbonyldibenz[b,e]oxepin-11-ylidene)propyl]piperidin-4-ol] | < 1 µM |
| 1-[3-(5,11-Dihydro-7-methoxy[1]benzoxepino[2,3-b]pyridin-5-ylidene)propyl]-4-(4-pyridyl)piperidin-4-ol [Example 149] | < 1000 µM |
| 4-(4-Chlorophenyl)-1-[3-(5,11-dihydro-7-ethoxycarbonyl-[1]benzoxepino[2,3-b]pyridin-5-ylidene) propyl]piperidine-4-ol [Example 423] | < 1 µM |
| CN(C)CCOc1ccc2c(c1)C(=CCCN1CCC(O)(c3ccc(Cl)cc3)CC1)c1cccnc1CO2 [Example 131] | < 1 µM |
| CC(C)NC(=O)N(Cc1ccc(Cl)cc1)C1CCN(CCC=C2c3cc(C(C)(C)O)ccc3OCc3ncccc32)C1 (stereo not shown) [Example 567, 1-(4-Chloro-benzyl)-1-(1-{3-[7-(1-hydroxy-1-methyl-ethyl)-11H-10-oxa-1-aza-dibenzo[a,d]cyclohepten-5-ylidene]-propyl}-pyrrolidin-3-yl)-3-isopropyl-urea] | < 1 µM |
| 4-(4-Chlorophenyl)-1-[3-(5,11-dihydro-7-propoxy[1]benzoxepino[2,3-b]pyridin-5-ylidene)propyl]piperidin-4-ol [Example 128] | < 1 µM |
| 4-(4-Chlorophenyl)-1-[3-(5,11-dihydro-7-(2-hydroxyethyl)oxy[1]benzoxepino[2,3-b]pyridin-5-ylidene)propyl]piperidin-4-ol [Example 51] | < 1 µM |
| CCN(Cc1ccc(Cl)cc1)[C@@H]1CCN(CCC=C2c3cc(C(C)(C)O)ccc3OCc3ncccc32)C1 [Example 524, (R)-2-[5-(3-{3-[(4-Chloro-benzyl)-ethyl-amino]-pyrrolidin-1-yl}-propylidene)-5,11-dihydro-10-oxa-1-aza-dibenzo[a,d]cyclohepten-7-yl]-propan-2-ol] | < 1 µM |
| CC(C)(O)c1ccc2c(c1)C(=CCCN1CC[C@@H](N3Cc4ccc(Cl)cc4C3)C1)c1cccnc1CO2 [Example 532] | < 2 µM |
| 1-[3-(8-Bromo-5,11-dihydro[1]benzoxepino[2,3-b]pyridin-5-ylidene)propyl]-4-(4-chlorophenyl)piperidine [Example 160] | < 1 µM |
| 1-[3-(5,11-Dihydro-7-methoxy[1]benzoxepino[2,3-b]pyridin-5-ylidene)propyl]-4-(2-pyridyl)piperidin-4-ol [Example 147] | < 10 µM |

— patent US8653096B2, “Chemokine receptor antagonists and methods of use thereof” (Millennium Pharmaceuticals, Inc., priority 2001, dated 2014)
